Assay results from patent US20260295053A1, “COMPOUNDS FOR DEGRADATION AND INHIBITION OF KRAS (G12D) PROTEIN” (Shenzhen Ionova Life Science Co., Ltd., priority 2023, published 2026).

Tests used:
[1] = molecular target: T1, KRAS (G12D) (Homo sapiens, UniProt P01116, G12D); assay: KRAS (G12D) cellular degradation assay in AsPC-1 cells; assay type: cell-based; settings: 24 hours, antibody fluorescence (Odyssey CLX), DC50 half-maximal degradation concentration
T1 construct: in-cell western with KRAS G12D antibody after 24 h
T1 sequence (P01116 1-188 isoform P01116-2 G12D): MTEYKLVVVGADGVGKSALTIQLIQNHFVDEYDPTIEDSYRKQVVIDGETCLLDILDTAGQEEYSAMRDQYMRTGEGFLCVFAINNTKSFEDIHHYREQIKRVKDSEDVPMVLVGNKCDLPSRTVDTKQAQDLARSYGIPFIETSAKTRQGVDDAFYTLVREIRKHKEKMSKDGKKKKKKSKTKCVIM
In short: (§1)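 AsPC-1 cells: for degradation, grown to ~90% confluency, treated 24 h with 1:3 compound series ([…] to 1.5 nM), then fixed and immunostained for KRAS G12D and β-actin, read by infrared fluorescence, DC50 fitted. Proliferation: 3,500 cells/well, 6-day treatment, CellTiter Glo luminescence, IC50 fitted.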

[2] = tested on: AsPC-1 cells; assay: AsPC-1 cell proliferation assay (CellTiter Glo); assay type: cell-based; settings: Homo sapiens, ASPC1, 144 h, 6 days
In short: as §1

DC50 [1] [nM]	IC50 [2] [nM]	SMILES
< 10	< 10	CCn1nccc1-c1ccc([C@H](CO)NC(=O)[C@@H]2C[C@@H](O)CN2C(=O)[C@H](C(C)C)n2cc(-c3ccc(COc4c(-c5c(C)c(F)cc6[nH]ncc56)c(C5CC5)cc5c(N6C[C@@H]7C[C@H]6CN7)nc(OC(COC)C(F)(F)F)nc45)cc3)nn2)cc1 (stereo partly drawn) [Example 58, (2S,4R)-1-((2S)-2-(4-(4-(((4-((1S,4S)-2,5-diazabicyclo[2.2.1]heptan-2-yl)-6-cyclopropyl-7-(6-fluoro-5-methyl-1H-indazol-4-yl)-2-((1,1,1-trifluoro-3-methoxypropan-2-yl)oxy)quinazolin-8-yl)oxy)methyl)phenyl)-1H-1,2,3-triazol-1-yl)-3-methylbutanoyl)-N—((R)-1-(4-(1-ethyl-1H-pyrazol-5-yl)phenyl)-2-hydroxyethyl)-4-hydroxypyrrolidine-2-carboxamide]
< 10	< 10	Cc1ncsc1C#C[C@H](CO)NC(=O)[C@@H]1C[C@@H](O)CN1C(=O)[C@H](C(C)C)n1cc(-c2ccc(COc3c(-c4c(C)c(F)cc5[nH]ncc45)c(C4CC4)cc4c(N5C[C@@H]6C[C@H]5CN6)nc(OC5CCOCC5)nc34)cc2)nn1 [Example 59, (2S,4R)-1-((2S)-2-(4-(4-(((4-((1S,4S)-2,5-diazabicyclo[2.2.1]heptan-2-yl)-6-cyclopropyl-7-(6-fluoro-5-methyl-1H-indazol-4-yl)-2-((tetrahydro-2H-pyran-4-yl)oxy)quinazolin-8-yl)oxy)methyl)phenyl)-1H-1,2,3-triazol-1-yl)-3-methylbutanoyl)-4-hydroxy-N—((R)-1-hydroxy-4-(4-methylthiazol-5-yl)but-3-yn-2-yl)pyrrolidine-2-carboxamide]
< 10	< 10	CO[C@@H](C)COc1nc(N2C[C@@H]3C[C@H]2CN3)c2cc(C3CC3)c(-c3c(C)c(F)cc4[nH]ncc34)c(OCc3ccc(-c4cn([C@H](C(=O)N5C[C@H](O)C[C@H]5C(=O)N[C@H](C#Cc5cccc(F)c5F)CO)C(C)C)nn4)cc3)c2n1 [Example 60, (2S,4R)-1-((2S)-2-(4-(4-(((4-((1S,4S)-2,5-diazabicyclo[2.2.1]heptan-2-yl)-6-cyclopropyl-7-(6-fluoro-5-methyl-1H-indazol-4-yl)-2-((S)-2-methoxypropoxy)quinazolin-8-yl)oxy)methyl)phenyl)-1H-1,2,3-triazol-1-yl)-3-methylbutanoyl)-N—((R)-4-(2,3-difluorophenyl)-1-hydroxybut-3-yn-2-yl)-4-hydroxypyrrolidine-2-carboxamide]
10 to 100	10 to 100	CCn1nccc1-c1ccc([C@H](CO)NC(=O)[C@@H]2C[C@@H](O)CN2C(=O)[C@H](C(C)C)n2cc(-c3ccc(COc4c(-c5c(C)c(F)cc6[nH]ncc56)c(C5CC5)cc5c(N6C7CNCC6COC7)nc(OC[C@H](C)OC)nc45)cc3)nn2)cc1 [Example 61, (2S,4R)-1-((2S)-2-(4-(4-(((4-(3-oxa-7,9-diazabicyclo[3.3.1]nonan-9-yl)-6-cyclopropyl-7-(6-fluoro-5-methyl-1H-indazol-4-yl)-2-((S)-2-methoxypropoxy)quinazolin-8-yl)oxy)methyl)phenyl)-1H-1,2,3-triazol-1-yl)-3-methylbutanoyl)-N—((R)-1-(4-(1-ethyl-1H-pyrazol-5-yl)phenyl)-2-hydroxyethyl)-4-hydroxypyrrolidine-2-carboxamide]
< 10	< 10	CCn1nccc1-c1ccc([C@H](CO)NC(=O)[C@@H]2C[C@@H](O)CN2C(=O)[C@H](C(C)C)n2cc(-c3ccc(COc4c(-c5c(C)c(F)cc6[nH]ncc56)c(C5CC5)cc5c(N6C[C@@H]7C[C@H]6CN7)nc(OCC6(CC(F)F)CC6)nc45)cc3)nn2)cc1 [Example 62, (2S,4R)-1-((2S)-2-(4-(4-(((4-((1S,4S)-2,5-diazabicyclo[2.2.1]heptan-2-yl)-6-cyclopropyl-2-((1-(2,2-difluoroethyl)cyclopropyl)methoxy)-7-(6-fluoro-5-methyl-1H-indazol-4-yl)quinazolin-8-yl)oxy)methyl)phenyl)-1H-1,2,3-triazol-1-yl)-3-methylbutanoyl)-N—((R)-1-(4-(1-ethyl-1H-pyrazol-5-yl)phenyl)-2-hydroxyethyl)-4-hydroxypyrrolidine-2-carboxamide]
< 10	< 10	Cc1ncsc1-c1ccc([C@H](CO)NC(=O)[C@@H]2C[C@@H](O)CN2C(=O)[C@H](C(C)C)n2cc(-c3ccc(COc4c(-c5c(C)c(F)cc6[nH]ncc56)c(C5CC5)cc5c(N6C[C@@H]7C[C@H]6CN7)nc(OC6CCC7(CC6)COC7)nc45)cc3)nn2)cc1 [Example 63, (2S,4R)-1-((2S)-2-(4-(4-(((2-((2-oxaspiro[3.5]nonan-7-yl)oxy)-4-((1S,4S)-2,5-diazabicyclo[2.2.1]heptan-2-yl)-6-cyclopropyl-7-(6-fluoro-5-methyl-1H-indazol-4-yl)quinazolin-8-yl)oxy)methyl)phenyl)-1H-1,2,3-triazol-1-yl)-3-methylbutanoyl)-4-hydroxy-N—((R)-2-hydroxy-1-(4-(4-methylthiazol-5-yl)phenyl)ethyl)pyrrolidine-2-carboxamide]
10 to 100	10 to 100	CO[C@@H](C)COc1nc(N2C[C@@H]3C[C@H]2CN3)c2cc(C3CC3)c(-c3c(C)c(F)cc4[nH]ncc34)c(OCc3ccc(-c4cn([C@H](C(=O)N5C[C@H](O)C[C@H]5C(=O)N[C@H](C#Cc5ccccc5Cl)CO)C(C)C)nn4)cc3)c2n1 [Example 64, (2S,4R)-1-((2S)-2-(4-(4-(((4-((1S,4S)-2,5-diazabicyclo[2.2.1]heptan-2-yl)-6-cyclopropyl-7-(6-fluoro-5-methyl-1H-indazol-4-yl)-2-((S)-2-methoxypropoxy)quinazolin-8-yl)oxy)methyl)phenyl)-1H-1,2,3-triazol-1-yl)-3-methylbutanoyl)-N—((R)-4-(2-chlorophenyl)-1-hydroxybut-3-yn-2-yl)-4-hydroxypyrrolidine-2-carboxamide]
< 10	< 10	CCn1nccc1-c1ccc([C@H](CO)NC(=O)[C@@H]2C[C@@H](O)CN2C(=O)[C@H](C(C)C)n2cc(-c3ccc(COc4c(-c5c(C)c(F)cc6[nH]ncc56)c(C5CC5)cc5c(N6C[C@@H]7C[C@H]6CN7)nc(OCC6(C(F)F)CCOCC6)nc45)cc3)nn2)cc1 [Example 65, (2S,4R)-1-((2S)-2-(4-(4-(((4-((1S,4S)-2,5-diazabicyclo[2.2.1]heptan-2-yl)-6-cyclopropyl-2-((4-(difluoromethyl)tetrahydro-2H-pyran-4-yl)methoxy)-7-(6-fluoro-5-methyl-1H-indazol-4-yl)quinazolin-8-yl)oxy)methyl)phenyl)-1H-1,2,3-triazol-1-yl)-3-methylbutanoyl)-N—((R)-1-(4-(1-ethyl-1H-pyrazol-5-yl)phenyl)-2-hydroxyethyl)-4-hydroxypyrrolidine-2-carboxamide]
